These results are taken from patent publication US9688687B2, “Polymorphic forms of icotinib phosphate and uses thereof” (BETTA PHARMACEUTICALS CO., LTD., priority 2013, dated 2017).

This data set is described as follows: Pharmacokinetic study of Icotinib hydrochloride and Polymorph Form II of Icotinib phosphate, oral suspension in fasted SD rats. In kind it is in vivo. Particulars: dose equivalent to 50 mg/kg Icotinib, plasma; for AUC(0-t): read-out: AUC(0-24). The source says:
Drugs and reagents: The Icotinib hydrochloride used in this study was of Crystalline Form I disclosed by the WO2010/003313. Polymorph Form II of Icotinib phosphate and Icotinib hydrochloride were ground to fine particles. The material content (purity) was not less than 99.0%. Sodium carboxymethyl cellulose was medical supply graded.
Experimental animals: SD rats were divided to an Icotinib hydrochloride group and a Polymorph Form II group, with both groups consisting of half males and half females.
Pharmaceutical preparation: the amount of each compound was weighed and then sodium carboxymethyl cellulose was added to result in the test compound's concentration of 0.5%. The solid mixture was then added to prepare a suspension thereof at a final concentration of […] in water.
Administration and sample collection: each suspension was administered orally to fasted SD rats at a dose equivalent to 50 mg/kg Icotinib in a dose volume of 5 ml/kg. 0.4 ml of blood was collected in EDTA-K pre anticoagulant tubes at time intervals of 0.5, 1, 1.5, 2, 4, 6, 8 and 24 hrs after the administration of the test compound, centrifuged at 3000 rpm for 10 minutes, and 120 μL plasma was collected and kept in cold storage.
Samples were analyzed by high performance liquid chromatography. The chromatographic conditions utilized C18-silane bonded silica as stationary phase, 0.02 mol/L of sodium dihydrogen phosphate in […] (40:60, using sodium hydroxide solution to adjust pH to 5.0) as the mobile phase and a detection wavelength of 334 nm. PK profile comparison of Crystalline Form I of Icotinib Hydrochloride and Polymorph Form II of Icotinib phosphate was summarized in Table 1 and FIG. 5.

The mark [1] stands for this setting: male, SD, rat, po, 50 mg/kg, male SD rats.
[2] abbreviates: female, SD, rat, po, 50 mg/kg, female SD rats.

Where a name gives a salt, the structure may show the parent alone. Read-outs that look alike come from different tables or passages of the source.

On to `C#Cc1cccc(Nc2ncnc3cc4c(cc23)OCCOCCOCCO4)c1` [Icotinib Phosphate polymorph form II, Icotinib phosphate], for which, for the setting “female SD rats”, the “AUC(0-24)” value turned out to be 155200 ± 20200 ng·h/mL, the “AUC(0-∞)” value turned out to be 156700 ± 17800 ng·h/mL, the highest concentration (Cmax) was 13100 ± 2400 ng/mL and the T1/2 is given as 2.9 ± 0.4 h. The Tmax (female SD rats) is 4.7 ± 1.2 h. In addition, under “male SD rats”, the T1/2 stood at 2.6 ± 0.2 h and the time of peak concentration (Tmax) came out at 2.3 ± 1.5 h. Further, under setting [1], the AUC(0-inf) was 28700 ± 8100 ng·h/mL and the AUC(0-t) was 28600 ± 8100 ng·h/mL.
Turning to `C#Cc1cccc(Nc2ncnc3cc4c(cc23)OCCOCCOCCO4)c1` [Icotinib hydrochloride], the T1/2 (female SD rats, hydrochloride) is listed as 6.2 ± 3.5 h. Moreover, under setting [2], the AUC(0-inf) turned out to be 124000 ± 13000 ng·h/mL and the AUC(0-t) came out at 113000 ± 24000 ng·h/mL. The Cmax (female, SD, rat, po, 50 mg/kg, female SD rats, read-out: Cmax) stood at 10200 ± 1900 ng/mL. In addition, the Tmax (female, SD, rat, po, 50 mg/kg, female SD rats, read-out: Tmax) came out at 3 ± 1.7 h. For the setting “male SD rats, hydrochloride”, the “AUC(0-24)” value is 19000 ± 7100 ng·h/mL and the “AUC(0-∞)” value came to 19100 ± 7200 ng·h/mL. In addition, the half-life under setting [1] is 2.9 ± 0.4 h. For the same compound, for the setting “male, SD, rat, po, 50 mg/kg, male SD rats, read-out: Cmax”, the maximum concentration (Cmax) was 3400 ± 400 ng/mL. The Tmax (male, SD, rat, po, 50 mg/kg, male SD rats, read-out: Tmax) was 2.3 ± 3.2 h.
